Laboratory results as given in patent publication US5599953A, “C-glycoside analogues of N-(4-hydroxyphenyl)retinamide-O-glucuronide” (The Ohio State Research Foundation, priority 1995, dated 1997).
Entries after “also recorded” stand apart in the source; their conditions may differ. Read-outs that look alike come from different tables or passages of the source. Each block holds one molecule with its values, some of them ahead of it.

Key:
cancer = conditions: literature; cited from earlier work
[1] = system: retinoic acid receptors α, β and γ; experiment: Competition with retinoic acid for retinoic acid receptors (RAR α, β, γ), overall; assay type: binding; conditions: 1 μM drug
[2] = Acid stability, 0.1N methanolic HCl at 37° C. for 2 hours; assay type: physicochemical
Protocol: To determine the stability of the C-glucopyranosiduronate linkage towards acidic conditions, samples of 4-HPR-O-glucuronide, 4-(retinamido)phenyl-C-glucuronide and 4-(retinamido)benzyl-C-glucuronide were treated with 0.1N methanolic HCl at 37° C. for 2 hours.

mRARα = target: T1, mRARα (Mus musculus, UniProt P11416); experiment: Drug competition with (3H)retinoic acid binding, mRARα; conditions: read-out: percent reduction of binding of the (3H)retinoic acid, mRARα
T1 construct: made in house; host or cells: Spodoptera frugiperda insect cells, baculovirus (whole cell extract)
T1 sequence (P11416 1-462): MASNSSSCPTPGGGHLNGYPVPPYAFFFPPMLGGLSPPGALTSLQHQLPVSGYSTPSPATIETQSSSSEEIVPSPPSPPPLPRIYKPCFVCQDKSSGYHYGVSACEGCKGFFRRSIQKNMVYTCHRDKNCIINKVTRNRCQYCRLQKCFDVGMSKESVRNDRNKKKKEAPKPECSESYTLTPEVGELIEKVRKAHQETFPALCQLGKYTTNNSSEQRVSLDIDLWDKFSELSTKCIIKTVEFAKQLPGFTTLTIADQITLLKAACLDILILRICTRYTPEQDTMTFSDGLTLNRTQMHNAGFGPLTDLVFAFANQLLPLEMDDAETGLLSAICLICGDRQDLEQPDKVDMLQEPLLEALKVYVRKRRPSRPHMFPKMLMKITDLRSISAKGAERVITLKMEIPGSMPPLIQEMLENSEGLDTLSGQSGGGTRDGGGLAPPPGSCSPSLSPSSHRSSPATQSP

MCF-7 cells = experiment: Growth inhibition of MCF-7 human mammary tumor cells; assay type: cell-based; conditions: for IC50: Homo sapiens, MCF7, 168 h, 7 days, read-out: ED50 for growth inhibition of MCF-7 cells; for growth inhibition of MCF-7 cells, in words: comparison of drugs
Protocol: The antiproliferative activity of the drugs in MCF-7 human mammary tumor cell culture models were determined.
The MCF-7 cells were obtained originally from the Michigan Cancer Foundation. The cells were routinely grown as monolayers in T-25 plastic tissue culture flasks from Falcon, in Oxnard, Calif. containing 5.0 mL of B-10 medium consisting of Minimum Essential Medium (MEM, Earle's Base) supplemented with 1.0 mM MEM non-essential amino acid, 2.0 mM 1-glutamine,10% fetal bovine serum (FBS), and antibiotics. Culture conditions included a humidified atmosphere of 5% CO2 at 37° C. One-half of the medium was replenished twice a week. Cells were harvested by trypsinization upon confluency. All variables were evaluated in triplicate.
For the growth inhibition assay the MCF-7 cells were plated in 24-well plates at a density of 1.5×10^4 cells/cm^2. […] Control cultures were treated with an equivalent volume of absolute ethanol. On day 7 the cells were harvested by trypsinization and viability was assessed by trypan blue exclusion according to Ueda, H. et al. Cancer 1980, 46, 2203-2209. Total cell counts were obtained using a hemocytometer as well as a the Coulter Counter.

mRARγ = target: T2, mRARγ (Mus musculus, UniProt P18911); experiment: Drug competition with (3H)retinoic acid binding, mRARγ; conditions: read-out: percent reduction of binding of the (3H)retinoic acid, mRARγ; 1 μM drug; 5 nM [3H]RA
T2 construct: made in house; host or cells: Spodoptera frugiperda insect cells, baculovirus (whole cell extract)
T2 sequence (P18911 1-458): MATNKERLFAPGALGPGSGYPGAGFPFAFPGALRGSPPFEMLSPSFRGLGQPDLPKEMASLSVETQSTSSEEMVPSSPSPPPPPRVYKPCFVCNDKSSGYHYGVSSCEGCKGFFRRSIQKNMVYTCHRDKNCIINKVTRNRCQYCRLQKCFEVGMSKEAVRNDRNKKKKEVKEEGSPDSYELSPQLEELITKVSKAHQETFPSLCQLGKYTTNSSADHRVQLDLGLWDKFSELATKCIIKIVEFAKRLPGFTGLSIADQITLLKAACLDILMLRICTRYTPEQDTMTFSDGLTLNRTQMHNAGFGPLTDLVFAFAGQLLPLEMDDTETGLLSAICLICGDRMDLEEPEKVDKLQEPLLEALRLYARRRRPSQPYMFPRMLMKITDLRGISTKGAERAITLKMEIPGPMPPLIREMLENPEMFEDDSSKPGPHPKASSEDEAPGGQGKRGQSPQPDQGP

mRARβ = target: T3, mRARβ (Mus musculus, UniProt P22605); experiment: Drug competition with (3H)retinoic acid binding, mRARβ; conditions: read-out: percent reduction of binding of the (3H)retinoic acid, mRARβ; 1 μM drug; 5 nM [3H]RA
T3 construct: made in house; host or cells: Spodoptera frugiperda insect cells, baculovirus (whole cell extract)
T3 sequence (P22605 1-448 isoform P22605-3): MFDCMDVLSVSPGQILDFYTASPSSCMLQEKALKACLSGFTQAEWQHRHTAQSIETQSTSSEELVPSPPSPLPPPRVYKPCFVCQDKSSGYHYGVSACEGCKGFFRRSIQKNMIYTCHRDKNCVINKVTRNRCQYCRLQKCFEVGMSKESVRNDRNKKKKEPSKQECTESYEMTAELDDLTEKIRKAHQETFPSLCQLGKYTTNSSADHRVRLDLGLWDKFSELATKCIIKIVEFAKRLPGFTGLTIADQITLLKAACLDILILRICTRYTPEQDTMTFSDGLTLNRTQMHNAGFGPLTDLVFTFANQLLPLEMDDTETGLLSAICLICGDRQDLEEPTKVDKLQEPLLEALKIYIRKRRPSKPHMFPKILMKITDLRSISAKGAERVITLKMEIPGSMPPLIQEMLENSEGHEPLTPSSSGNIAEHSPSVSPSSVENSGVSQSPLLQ

β-glucuronidase [3] = target: T4, β-glucuronidase (Homo sapiens, UniProt P08236); experiment: Inhibition of β-glucuronidase mediated hydrolysis of 4-HPR-O-glucuronide; assay type: biochemical; conditions: for IC50: 10% methanol as co-solvent, 4-HPR-O-glucuronide below 184.5 μM
T4 sequence (P08236 23-651): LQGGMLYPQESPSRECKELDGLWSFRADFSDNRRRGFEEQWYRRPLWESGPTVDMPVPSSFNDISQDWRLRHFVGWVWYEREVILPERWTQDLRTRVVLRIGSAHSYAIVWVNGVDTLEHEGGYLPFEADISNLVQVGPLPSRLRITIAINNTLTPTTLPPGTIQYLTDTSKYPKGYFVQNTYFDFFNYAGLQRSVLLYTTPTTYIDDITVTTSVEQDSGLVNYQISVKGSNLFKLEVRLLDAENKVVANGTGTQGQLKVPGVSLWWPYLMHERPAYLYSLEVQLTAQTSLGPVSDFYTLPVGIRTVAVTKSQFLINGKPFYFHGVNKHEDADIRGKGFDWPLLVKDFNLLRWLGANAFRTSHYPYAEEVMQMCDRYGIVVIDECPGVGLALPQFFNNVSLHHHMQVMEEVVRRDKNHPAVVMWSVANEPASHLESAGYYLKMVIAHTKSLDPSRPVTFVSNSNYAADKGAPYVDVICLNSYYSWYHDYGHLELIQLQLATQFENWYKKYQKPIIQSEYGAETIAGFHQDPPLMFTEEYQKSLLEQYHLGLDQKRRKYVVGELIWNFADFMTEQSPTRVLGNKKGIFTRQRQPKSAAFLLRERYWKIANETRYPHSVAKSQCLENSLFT
From the text: Chem. Soc., (1954), 76, 4872-4877.

[4] = Acid stability, 0.1N HCl at 37° C. for two hours; assay type: physicochemical; conditions: HPLC
Protocol: Similarly, 1-(D-glucopyranosyluronosyl) retinamide and RAG were treated with 0.1N HCl at 37° C. for two hours.

β-glucuronidase [5] = target: T4, β-glucuronidase; experiment: Stability toward β-glucuronidase mediated hydrolysis; assay type: in vitro ADME; conditions: within twenty minutes
Protocol: Similarly 1-(D-glucopyranosyluronosyl) retinamide and RAG were evaluated for their stability toward β-glucuronidase medicated hydrolysis under the same conditions as described above.

[6] = target: T5, human retinoic acid receptor γ (Homo sapiens, UniProt P13631); experiment: Competition binding / retinoic acid binding, human retinoic acid receptor γ/BCV (FIG. 1)
T5 construct: made in house
T5 sequence (P13631 1-454): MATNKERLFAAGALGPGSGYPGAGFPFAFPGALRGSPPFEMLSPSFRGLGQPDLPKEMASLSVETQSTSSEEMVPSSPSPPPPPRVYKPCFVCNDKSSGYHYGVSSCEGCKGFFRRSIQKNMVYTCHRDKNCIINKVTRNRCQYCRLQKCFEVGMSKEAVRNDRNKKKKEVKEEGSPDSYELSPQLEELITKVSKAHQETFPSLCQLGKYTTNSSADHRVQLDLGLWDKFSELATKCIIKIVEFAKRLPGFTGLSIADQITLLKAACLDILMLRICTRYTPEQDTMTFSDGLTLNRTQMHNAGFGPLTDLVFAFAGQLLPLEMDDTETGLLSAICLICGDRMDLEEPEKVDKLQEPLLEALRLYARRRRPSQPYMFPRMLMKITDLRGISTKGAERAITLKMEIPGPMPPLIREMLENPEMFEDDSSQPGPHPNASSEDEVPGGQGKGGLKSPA

[7] = system: DMBA-Induced Rat Mammary Tumors; experiment: Effect on progression of DMBA-induced rat mammary tumors; assay type: in vivo; conditions: 1 mmol/Kg in diet
From the text: The control rats received DMBA intubation only and AIN-76A rat chow.

Compound: CC(=O)OC/C=C(C)/C=C/C=C(C)/C=C/C1=C(C)CCCC1(C)C [retinyl acetate]
- cancer preventive activity (cancer): display cancer preventive activity

Compound: CC1=C(/C=C/C(C)=C/C=C/C(C)=C/C(=O)Nc2ccc(C[C@@H]3O[C@H](CO)[C@@H](O)[C@H](O)[C@H]3O)cc2)C(C)(C)CCC1 [4-(retinamido)benzyl-C-glucoside]
- competition with retinoic acid for the receptors, in words [1]: significantly compete with retinoic acid for the receptors
- inhibition at 1 µM (mRARα; 1 μM drug, 5 nM [3H]RA): 56%
- IC50 (MCF-7 cells; Assay 1): 3.4 µM
- growth inhibition of MCF-7 cells, in words (MCF-7 cells): exhibit the best growth inhibition of the cells
- inhibition at 1 µM (mRARγ): 77%
- inhibition at 1 µM (mRARβ): 64%

Compound: CC1=C(/C=C/C(C)=C/C=C/C(C)=C/C(=O)Nc2ccc(C[C@@H]3OC[C@@H](O)[C@H](O)[C@H]3O)cc2)C(C)(C)CCC1 [4-(retinamido)benzyl-C-xyloside]
- inhibition at 1 µM (mRARα; 1 μM drug, 5 nM [3H]RA): 12%
- IC50 (MCF-7 cells; Assay 2): 15 µM
- inhibition at 1 µM (mRARγ): 2%
- inhibition at 1 µM (mRARβ): 3%

Compound: CC1=C(/C=C/C(C)=C/C=C/C(C)=C\C(=O)O)C(C)(C)CCC1 [13-cis-retinoic acid, reference compound]
- cancer preventive activity (cancer): display cancer preventive activity
- inhibition at 1 µM (mRARα): 28%
- inhibition at 1 µM (mRARγ): 4%

Compound: CC1=C(/C=C/C(C)=C/C=C/C(C)=C/C(=O)Nc2ccc(C[C@@H]3O[C@H](C(=O)O)[C@@H](O)[C@H](O)[C@H]3O)cc2)C(C)(C)CCC1 [4-(retinamido)benzyl-C-glucuronide]
- competition with retinoic acid for the receptors, in words [1]: significantly compete with retinoic acid for the receptors
- acid hydrolysis (stability) [2]: remained essentially intact
- inhibition at 1 µM (mRARα; 1 μM drug, 5 nM [3H]RA): 67%
- IC50 (MCF-7 cells; Assay 1): 6.5 µM
- growth inhibition of MCF-7 cells, in words (MCF-7 cells): exhibit the best growth inhibition of the cells
- inhibition at 1 µM (mRARγ): 78%
- inhibition at 1 µM (mRARβ): 82%
- inhibition of β-glucuronidase mediated hydrolysis, in words (β-glucuronidase [3]): slightly more effective than the 4-(retinamido)phenyl-C-glucuronide
- IC50 (β-glucuronidase [3]): 236 µM

Compound: CC1=C(/C=C/C(C)=C/C=C/C(C)=C/C(=O)N[C@@H]2O[C@H](CO)[C@@H](O)[C@H](O)[C@H]2O)C(C)(C)CCC1 [1-(B-D-glucopyranosyl) retinamide, 1-(β-D-glucopyranosyl) retinamide]
- Ki ([6]; 1.3 nM [3H]-retinoic acid): 0.71 µM
- fold less effective than retinoic acid in competing for [3H]-retinoic acid binding to retinoic acid receptor γ ([6]; vs retinoic acid, FIG. 1): 1500 fold
- effect on DMBA-induced mammary tumor development, in words [7]: significantly prolonged the latency period of mammary cancer; also recorded: tumor induction was markedly delayed and reduced; also recorded: greater mammary tumor chemopreventive effect than does retinoic acid; also recorded: inhibit DMBA induced mammary tumor development
- tumor latency ([7]; 15 mg DMBA oral): 64 days
- tumor incidents ([7]; 110 days post intubation): 58%
- tumor number/rat ([7]; 110 days post intubation): 0.92 tumors per rat

The next lines start with results.

- acid hydrolysis (stability) [2]: remained essentially intact
- inhibition at 1 µM (mRARα; 1 μM drug, 5 nM [3H]RA): 48%
- IC50 (MCF-7 cells; Assay 3): 50 µM
- inhibition at 1 µM (mRARγ): 40%
- inhibition at 1 µM (mRARβ): 47%
- IC50 (β-glucuronidase [3]): 267 µM
Compound: CC1=C(/C=C/C(C)=C/C=C/C(C)=C/C(=O)Nc2ccc([C@@H]3O[C@H](C(=O)O)[C@@H](O)[C@H](O)[C@H]3O)cc2)C(C)(C)CCC1 [4-(retinamido)phenyl-C-glucuronide]
- competition with retinoic acid for the receptors, in words [1]: significantly compete with retinoic acid for the receptors
- growth inhibition of MCF-7 cells, in words (MCF-7 cells): potency consistent with its glucoside analogue
- inhibition of β-glucuronidase mediated hydrolysis, in words (β-glucuronidase [3]): act as inhibitors of β-glucuronidase mediated hydrolysis

- IC50 (MCF-7 cells; Assay 2): 27 µM
Compound: CC1=C(/C=C/C(C)=C/C=C/C(C)=C/C(=O)Nc2ccc([C@@H]3O[C@H](CO)[C@@H](O)[C@H](O)[C@H]3O)cc2)C(C)(C)CCC1 [4-(retinamido)phenyl-C-glucoside]

- degraded at 2 h [4]: ~50%
- hydrolysis by β-glucuronidase within twenty minutes (β-glucuronidase [5]): completely hydrolyzed
Compound: CC1=C(/C=C/C(C)=C/C=C/C(C)=C/C(=O)O[C@@H]2O[C@H](C(=O)O)[C@@H](O)[C@H](O)[C@H]2O)C(C)(C)CCC1 [RAG, retinoyl β-glucuronide, reference compound]
